Target: T1, recombinant, N-terminally GST-tagged ATAD2 bromodomain amino acids 981-1108 (Homo sapiens, UniProt Q6PL18)
T1 construct: ATAD2 bromodomain amino acids 981-1108; made in house; host or cells: E. coli
T1 sequence (Q6PL18 981-1108): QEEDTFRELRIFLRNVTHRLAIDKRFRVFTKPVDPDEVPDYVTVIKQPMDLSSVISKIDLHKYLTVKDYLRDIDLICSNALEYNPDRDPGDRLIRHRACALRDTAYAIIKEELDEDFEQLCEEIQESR
Assay: TR-FRET assay: disruption of the interaction between ATAD2 and acetylated Histone H4 (Ac-H4) peptide
Format: binding
Conditions: inhibition of ATAD2/Ac-H4 complex formation; 10 nM ATAD2, 50 nM Ac-H4 peptide
From the text: The ability of the compounds described in the present invention to disrupt the interaction between ATAD2 and acetylated Histone H4 (Ac-H4) was used as quantitative measure of their ATAD2-binding affinities.
To this end a TR-FRET assay which detects the binding of an Ac-H4-derived synthetic peptide (purchased from e.g. Biosyntan (Berlin, Germany)) of sequence HSGRGKGGGGKGLGK(Ac)GGAKRHRK-Biotin to recombinant, N-terminally GST-tagged ATAD2 bromodomain amino acids 981-1108. The protein was produced in-house via E. coli expression followed by GSH-Sepharose affinity- and Superdex S200-size exclusion chromatography purification.
Typically, 11 different concentrations of each compound (0.1 nM, 0.33 nM, 1.1 nM, 3.8 nM, 13 nM, 44 nM, 0.15 μM, 0.51 μM, 1.7 μM, 5.9 μM and 20 μM) were tested in duplicate within the same microtiter plate. To this end, 100-fold concentrated compound solutions (in DMSO) were previously prepared with a Precision Pippeting System (BioTek) by serial dilution (1:3.4) of 2 mM stocks in clear, low-volume 384-well microtiter source plates (Greiner Bio-One). Subsequently, 50 nl of compounds were transferred into black, low-volume test plates from the same supplier using a Hummingbird capillary based liquid handling instrument (Digilab). Tests were started by the addition of 2 μl of 2.5-fold concentrated ATAD2 solution (25 nM=10 nM final concentration in the 5 μl assay volume) in aqueous assay buffer [50 mM HEPES pH 7.5, 50 mM potassium fluoride (KF), 100 mM sodium chloride (NaCl), 0.25 mM CHAPS, 0.05% bovine serum albumine (BSA) and 1 mM dithiothreitol (DTT)] to the compounds in the test plate with a Multidrop dispenser (Thermo-Fisher). Test plates were then incubated 10′ at 22° C., in order to allow pre-equilibration of putative compound-ATAD2 complexes. Subsequently, 3 μl of a 1.67-fold concentrated solution containing Ac-H4 peptide (83.5 nM=50 nM final concentration) and TR-FRET detection reagents [16.7 nM Anti-GST-XL665 (Cisbio), =10 nM final concentration and 4.17 nM Lance EU W-1024 Streptavidin Europium Chelate (Perkin-Elmer)=2.5 nM final concentration were dispensed into the plates.
The mixture was further incubated in the dark for 1 hour at 22° C. Finally the inhibition of the formation of ATAD2/Ac-H4 complexes was assessed by measurement of the resonance energy transfer from the Streptavidin-Eu-Chelate to the anti-GST-XL665 antibody present in the reaction. To this end, the fluorescence emissions at 622 nm and 665 nm after excitation at 337 nm were measured in a TR-FRET reader, e.g. a Rubystar or Pherastar (both from BMG Lab Technologies) or a Viewlux (Perkin-Elmer) and the ratio of the emissions at 665 nm and at 622 nm was taken as indicator for the amount of ATAD2/Ac-H4 complexes in equilibrium.
The data were normalized using two sets of control wells (16 each). The first accounted for 100% ATAD2/Ac-H4 binding (0% inhibition), and contained all reaction components but DMSO instead of inhibitors. The second represented 0% ATAD2/Ac-H4 binding (100% inhibition), and included all assay components except ATAD2. IC50 values were calculated by fitting the normalized inhibition data to a 4-parameter logistic equation using either Screener software (Genedata) or a Bayer-proprietary analysis software.

| IC50 [nM] | Compound |
| --- | --- |
| 759 | Cc1ccc([C@@H](C)NCc2ccc(-c3ccc(Cl)c(C(=O)N[C@@H](CO)Cc4ccc(C#N)cc4N)c3)o2)cc1 [Example 41, N-[(2R)-1-(2-amino-4-cyanophenyl)-3-hydroxypropan-2-yl]-2-chloro-5-[5-({[(1R)-1-(4-methylphenyl)ethyl]amino}methyl)-2-furyl]benzamide] |
| 1710 | CC(=O)NC[C@@H](Cc1ccc(C#N)cc1)NC(=O)c1cc(-c2ccc(CN[C@H](C)c3ccc(C)cc3)o2)ccc1Cl [Example 43, N-[(2R)-1-acetamido-3-(4-cyanophenyl)propan-2-yl]-2-chloro-5-[5-({[(1R)-1-(4-methylphenyl)ethyl]amino}methyl)-2-furyl]benzamide] |
| 1600 | Cc1ccc([C@@H](C)NCc2ccc(-c3ccc(Cl)c(C(=O)N[C@@H](CO)Cc4cccc(C#N)c4)c3)o2)cc1 [Example 44, 2-chloro-N-[(2R)-1-(3-cyanophenyl)-3-hydroxypropan-2-yl]-5-[5-({[(1R)-1-(4-methylphenyl)ethyl]amino}methyl)-2-furyl]benzamide] |
| 1800 | Cc1ccc([C@@H](C)NCc2ccc(-c3ccc(Cl)c(C(=O)N[C@H](Cc4ccc(C#N)cc4)[C@H](O)CC(C)C)c3)o2)cc1 [Example 45, 2-chloro-N-[(2R,3R)-1-(4-cyanophenyl)-3-hydroxy-5-methylhexan-2-yl]-5-[5-({[(1R)-1-(4-methylphenyl)ethyl]amino}methyl)-2-furyl]benzamide] |
| 1100 | Cc1ccc([C@@H](C)NCc2ccc(-c3ccc(Cl)c(C(=O)N[C@H](Cc4ccc(C#N)cc4)[C@@H](O)CC(C)C)c3)o2)cc1 [Example 46, 2-chloro-N-[(2R,3S)-1-(4-cyanophenyl)-3-hydroxy-5-methylhexan-2-yl]-5-[5-({[(1R)-1-(4-methylphenyl)ethyl]amino}methyl)-2-furyl]benzamide] |
| 2100 | Cc1ccc([C@@H](C)NCc2ccc(-c3ccc(Cl)c(C(=O)N[C@@H](CO)Cc4ccncc4)c3)o2)cc1 [Example 47, 2-chloro-N-[(2R)-1-hydroxy-3-(pyridin-4-yl)propan-2-yl]-5-[5-({[(1R)-1-(4-methylphenyl)ethyl]amino}methyl)-2-furyl]benzamide] |
| 1080 | Cc1ccc([C@@H](C)NCc2ccc(-c3ccc(Cl)c(C(=O)N[C@@H](CO)Cc4ccc(C(N)=O)cc4)c3)o2)cc1 [Example 48, N-[(2R)-1-(4-carbamoylphenyl)-3-hydroxypropan-2-yl]-2-chloro-5-[5-({[(1R)-1-(4-methylphenyl)ethyl]amino}methyl)-2-furyl]benzamide] |
| 1760 | Cc1ccc([C@@H](C)NCc2ccc(-c3ccc(Cl)c(C(=O)N[C@H](Cc4ccc(C#N)cc4)CN4CCCC4)c3)o2)cc1 [Example 49, 2-chloro-N-[(2R)-1-(4-cyanophenyl)-3-(pyrrolidin-1-yl)propan-2-yl]-5-[5-({[(1R)-1-(4-methylphenyl)ethyl]amino}methyl)-2-furyl]benzamide] |
| 1260 | COC(=O)C[C@@H](Cc1ccc(C#N)cc1)NC(=O)c1cc(-c2ccc(CN[C@H](C)c3ccc(C)cc3)o2)ccc1Cl [Example 50, methyl (3R)-3-({2-chloro-5-[5-({[(1R)-1-(4-methylphenyl)ethyl]amino}methyl)-2-furyl]benzoyl}amino)-4-(4-cyanophenyl)butanoate] |
| 810 | COC(=O)c1ccc(C[C@H](CO)NC(=O)c2cc(-c3ccc(CN[C@H](C)c4ccc(C)cc4)o3)ccc2Cl)cc1 [Example 51, methyl 4-[(2R)-2-({2-chloro-5-[5-({[(1R)-1-(4-methylphenyl)ethyl]amino}methyl)-2-furyl]benzoyl}amino)-3-hydroxypropyl]benzoate] |
| 705 | Cc1ccc([C@@H](C)NCc2ccc(-c3ccc(Cl)c(C(=O)N[C@@H](CNS(C)(=O)=O)Cc4ccc(C#N)cc4)c3)o2)cc1 [Example 54, 2-chloro-N-{(2R)-1-(4-cyanophenyl)-3-[(methylsulfonyl)amino]propan-2-yl}-5-[5-({[(1R)-1-(4-methylphenyl)ethyl]amino}methyl)-2-furyl]benzamide] |
| 274 | Cc1ccc([C@@H](C)NCc2ccc(-c3ccc(Cl)c(C(=O)N[C@@H](CNCC(=O)N4CCNCC4)Cc4ccc(C#N)cc4)c3)o2)cc1 [Example 55, 2-chloro-N-[(2R)-1-(4-cyanophenyl)-3-{[2-oxo-2-(piperazin-1-yl)ethyl]amino}propan-2-yl]-5-[5-({[(1R)-1-(4-methylphenyl)ethyl]amino}methyl)-2-furyl]benzamide] |
| 510 | Cc1ccc([C@@H](C)NCc2ccc(-c3ccc(Cl)c(C(=O)N[C@@H](CNC(=O)C4CCNCC4)Cc4ccc(C#N)cc4)c3)o2)cc1 [Example 56, N-[(2R)-2-({2-chloro-5-[5-({[(1R)-1-(4-methylphenyl)ethyl]amino}methyl)-2-furyl]benzoyl}amino)-3-(4-cyanophenyl)propyl]piperidine-4-carboxamide] |
| 520 | Cc1ccc([C@@H](C)NCc2ccc(-c3ccc(Cl)c(C(=O)N[C@@H](CNC(=O)CC4CCNCC4)Cc4ccc(C#N)cc4)c3)o2)cc1 [Example 57, 2-chloro-N-{(2R)-1-(4-cyanophenyl)-3-[(piperidin-4-ylacetyl)amino]propan-2-yl}-5-[5-({[(1R)-1-(4-methylphenyl)ethyl]amino}methyl)-2-furyl]benzamide] |
| 172 | Cc1ccc([C@@H](C)NCc2ccc(-c3ccc(Cl)c(C(=O)N[C@@H](CNC4CCN(C)CC4)Cc4ccc(C#N)cc4)c3)o2)cc1 [Example 58, 2-chloro-N-{(2R)-1-(4-cyanophenyl)-3-[(1-methylpiperidin-4-yl)amino]propan-2-yl}-5-[5-({[(1R)-1-(4-methylphenyl)ethyl]amino}methyl)-2-furyl]benzamide] |
| 625 | Cc1ccc([C@@H](C)NCc2ccc(-c3ccc(Cl)c(C(=O)N[C@@H](CNC4CCN(Cc5ccccc5)CC4)Cc4ccc(C#N)cc4)c3)o2)cc1 [Example 59] |
| 1900 | Cc1ccc([C@@H](C)NCc2ccc(-c3ccc(Cl)c(C(=O)N[C@@H](CNCc4ccccc4)Cc4ccc(C#N)cc4)c3)o2)cc1 [Example 60] |
| 798 | Cc1ccc([C@@H](C)NCc2ccc(-c3ccc(Cl)c(C(=O)N[C@@H](CNCC(C)C)Cc4ccc(C#N)cc4)c3)o2)cc1 [Example 61] |
| 332 | CCN1CCC(NC[C@@H](Cc2ccc(C#N)cc2)NC(=O)c2cc(-c3ccc(CN[C@H](C)c4ccc(C)cc4)o3)ccc2Cl)CC1 [Example 62] |
| 320 | Cc1ccc([C@@H](C)NCc2ccc(-c3ccc(Cl)c(C(=O)N[C@@H](CNC4CCN(CC(C)C)CC4)Cc4ccc(C#N)cc4)c3)o2)cc1 [Example 63] |
| 1180 | Cc1ccc([C@@H](C)NCc2ccc(-c3ccc(Cl)c(C(=O)N[C@@H](CNC4CCN(C(=O)OC(C)(C)C)CC4)Cc4ccc(C#N)cc4)c3)o2)cc1 [Example 64] |
| 121 | Cc1ccc([C@@H](C)NCc2ccc(-c3ccc(Cl)c(C(=O)N[C@@H](CN[C@H]4CCCN(C)C4)Cc4ccc(C#N)cc4)c3)o2)cc1 [Example 65] |
| 265 | Cc1ccc([C@@H](C)NCc2ccc(-c3ccc(Cl)c(C(=O)N[C@@H](CNC4CCNCC4)Cc4ccc(C#N)cc4)c3)o2)cc1 [Example 67] |
| 112 | Cc1ccc([C@@H](C)NCc2ccc(-c3ccc(Cl)c(C(=O)N[C@@H](CNCC4CCNCC4)Cc4ccc(C#N)cc4)c3)o2)cc1 [Example 69] |
| 85.8 | Cc1ccc([C@@H](C)NCc2ccc(-c3ccc(Cl)c(C(=O)N[C@@H](CNCCC4CCNCC4)Cc4ccc(C#N)cc4)c3)o2)cc1 [Example 70] |

— patent US10654818B2, “Furane derivatives as inhibitors of ATAD2” (BAYER PHARMA AKTIENGESELLSCHAFT, priority 2015, dated 2020)
